Reference: publication PMC11189555, “Aryl amino acetamides prevent Plasmodium falciparum ring development via targeting the lipid-transfer protein PfSTART1” (Nature Communications, 2024)
Where “and” joins values, the source holds several entries; their conditions need not be identical. Equal entries are not always repeated. Where two headings read alike, the source gives them in different places.

What was measured:
CR-WT parasites = assay: Growth inhibition assay (72 h, LDH activity); type: cell-based, Plasmodium falciparum; settings: CR-WT; for inhibition at 0.1 µM / inhibition at up to 0.1 µM / EC50: Plasmodium falciparum; for inhibition at 0.1 µM / inhibition at up to 0.1 µM: read-out: NORMALISED (growth inhibition, LDH absorbance); for EC50: read-out: EC50 W-991 (95% confidence interval), Fig 4C, n = 3
Experimental: Parasite growth assays with inhibitory compounds were performed as per[11] and are fully described in the Supplementary Information.
Molecular biology and transfection of P. falciparum: CRISPR method.
The full 5’ homology region of pfstart1 (either WT, N309K or N330K) was amplified from pPfSTART1-HA-2A-Neo-glmS with the same 5’ BglII primer and a new 3’ primer that replaced with PstI with SpeI and introduced a stop codon. The PCR product was then digested with BglII and SpeI and inserted into similarly digested p1.2 parasite vector2. The p1.2 vector had previously been inserted with a homology region amplified from the 3’ end of the pfstart1 gene (3’HB) to form a second homology block for double recombination. The primers used to amplify 3’HB are listed primers listed in […]
60 μg of p1.2-PfSTART1(WT/N309K/N330K) plasmid was linearised with KasI, precipitated in 3 M sodium acetate and ethanol (70% final concentration) overnight at -20°C. The DNA pellet was washed in cold 70% ethanol and resuspended in cytomix 3.
50 μ M of crRNA ( Table S 2) and 50 μM of tracRNA (Integrated DNA Technologies) were allowed to form a duplex (5 min at 95°C), and Cas9 enzyme (Integrated DNA Technologies) was added, and incubated for 20 min at room temperature 4. This crRNA -tracRNA -Cas9 mix was added to each DNA preparation and transfected to 3D7 ring parasites using the Bio -Rad Gene Pulser at 310 V and 950 μF.
Parasites containing the transfected DNA were selected using 2.5 nM WR99210 (Jacobus). Parasites lines were cloned using limiting dilution. Correct integration was tested by PCR (using primer START_5’UTR.F and START_Int.R1 , Table S 2), and sequencing was done using the primers START_3F and START_Int.R2 (Table S 2).
Growth inhibition assays. Synchronised ring-stage parasites (0.3-0.6% parasitemia, 2% haematocrit) were grown for 72 h in a serial-dilution of the compound under […]
and compound 4. Note that M-833 was first purchased from MolPort (MolPort -002-267-916) then made in-house at WEHI: the differences observed in EC50s across experiments are attributed to the different batches of M -833. For some experiments, 0, 0.25 or 2.5 mM of glucosamine (GlcN) was also added. Experiments were set up in technical duplicates or triplicates. Following a freeze -thaw cycle, lactate dehydrogenase (LDH) activity was assessed as an indicator of parasite growt h 5. 30 μL of parasite culture was incubated for 30 min in the dark with 75 μL Malstat mixture (0.1 M Tris pH 9.0, 20 g/L lactic acid, pH 7.5, 0.2% Triton-X100, 0.5 g/L acetylpyridine adenine dinucleotide (APAD, Sigma), 200 μg/mL nitroblue tetrazolium (NBT; Sigma), 1 μg/mL phenozine ethosulfate (PES; Sigma)). Absorbance was then measured at 650 nm, transformed using the formula below, plotted against the logarithm of the concentrations, and a non-linear regression (log(inhibitor) vs. response, variable slope) was calculated using GraphPad Prism to assess the half-inhibitory […]
Growth inhibition % = (1 − average(sample)− average(uRBC)) ∗ 100 […]
The DMSO samples were also used to assess growth of parasite in the presence of 0.25 and 2.5 mM GlcN (normalised by DMSO in 0 mM GlcN). […]

[1] = tested on: female gametes from mature stage V gametocytes; assay: Dual gamete formation assay: female gamete formation (Pfs25 expression); type: cell-based, Plasmodium falciparum
Experimental: The compounds were tested in the P. falciparum Dual Gamete Formation Assay (PfDGFA)[84], fully described in the Supplementary Information. […]
Dual gamete formation assays. The compounds were tested in the P. falciparum Dual Gamete Formation Assay (PfDGFA) 13. Briefly, mature stage V gametocytes were exposed to compounds for 48 h at 37°C in 384 well plates in gametocyte culture medium (RPMI 1640 supplemented with 25 mM HEPES, 50 μg/mL hypoxanthine, 4.8 g/L NaHCO3, 2 mM L-glutamine, 5% pooled type AB serum, 0.5% Albumax II (Gibco)) under a 1% O2, 3% CO2, 96% N2 environment. Gametogenesis was then triggered by the addition of 10 μL ookinete medium (gametocyte culture medium supplemented with 100 μM xanthurenic acid and 0.27 µg/mL Cy3-labelled anti-Pfs25 antibody) to each well at room temperature. Plates were then cooled on a metal block at 4°C for four min to ensure even cooling and then stabilised for a further 4 min at 28°C. At 20 min post-induction, male gametogenesis was recorded in each well by automated brightfield microscopy using a x4 objective lens and 1.5x magnifier (x6 effective magnification). Afterward, plates were incubated in the dark at room temperature for 24 h and then female gametogenesis recorded in each well by automated fluorescence microscopy (anti-Pfs25-positive cells). All experiments were performed in quadruplicate with DMSO and cabamiquine (DDD107498)17 as negative and positive controls respectively. All data was evaluated in comparison to the positive and negative controls to calculate percentage inhibition of male and female gametocytes, and dose response analysis and IC50 calculation performed using GraphPad Prism. […]

P. berghei = settings: at concentrations that are effective against P. falciparum; ref Nguyen et al. 2024; cited from earlier work
[2] = 0.25 mM GlcN, dilution point 1 of 10, starting concentration 100 nM
[3] = 2.5 mM GlcN, dilution point 1 of 10, starting concentration 100 nM
[4] = 2.5 mM GlcN, dilution point 2 of 10 from starting concentration 100 nM
[5] = 2.5 mM GlcN, dilution point 3 of 10 from starting concentration 100 nM
[6] = 2.5 mM GlcN, dilution point 4 of 10 from starting concentration 100 nM
[7] = 2.5 mM GlcN, dilution point 6 of 10 from starting concentration 100 nM

## CC(C)(Nc1ccc(Cl)c(S(=O)(=O)N2CCOCC2)c1)C(=O)Nc1ccc(F)c(Cl)c1 [W-991]
CR-WT parasites; 0 mM GlcN, W991 at 1.23457 nM
  NORMALISED (growth inhibition, LDH absorbance vs DMSO and uRBC): 49.5102 and 70.9626
CR-WT parasites; 0 mM GlcN, W991 at 3.7037 nM
  NORMALISED (growth inhibition, LDH absorbance vs DMSO and uRBC): 86.3119 and 94.5107
CR-WT parasites; 0 mM GlcN, W991 at 11.1111 nM
  NORMALISED (growth inhibition, LDH absorbance vs DMSO and uRBC): 91.2364 and 97.6134
CR-WT parasites; 0 mM GlcN, W991 at 33.3333 nM
  NORMALISED (growth inhibition, LDH absorbance vs DMSO and uRBC): 92.4279 and 96.4200
CR-WT parasites; 0 mM GlcN, W991 at 100 nM
  NORMALISED (growth inhibition, LDH absorbance vs DMSO and uRBC): 91.9778 and 98.0111
CR-WT parasites; [2]
  NORMALISED (growth inhibition, LDH absorbance): 97.4106
  inhibition at 0.1 µM: 93.4%
CR-WT parasites; 0.25 mM GlcN, dilution point 2 of 10 from starting concentration 100 nM
  NORMALISED (growth inhibition, LDH absorbance): 93.8101
CR-WT parasites; 0.25 mM GlcN, dilution point 3 of 10 from starting concentration 100 nM
  NORMALISED (growth inhibition, LDH absorbance): 94.0567
CR-WT parasites; 0.25 mM GlcN, dilution point 4 of 10 from starting concentration 100 nM
  NORMALISED (growth inhibition, LDH absorbance): 92.7990
CR-WT parasites; 0.25 mM GlcN, dilution point 5 of 10 from starting concentration 100 nM
  NORMALISED (growth inhibition, LDH absorbance): 69.6729 and 71.5413
CR-WT parasites; 0.25 mM GlcN, dilution point 6 of 10 from starting concentration 100 nM
  NORMALISED (growth inhibition, LDH absorbance): 30.2387 and 29.5808
CR-WT parasites; [3]
  NORMALISED (growth inhibition, LDH absorbance): 92.5403
  inhibition at 0.1 µM: 94.2%
CR-WT parasites; [4]
  NORMALISED (growth inhibition, LDH absorbance): 92.2581
  inhibition at up to 0.1 µM: 91.4%
CR-WT parasites; [5]
  NORMALISED (growth inhibition, LDH absorbance): 92.0699
  inhibition at up to 0.1 µM: 93%
CR-WT parasites; [6]
  NORMALISED (growth inhibition, LDH absorbance): 91.3306
  inhibition at up to 0.1 µM: 91.6%
CR-WT parasites; 2.5 mM GlcN, dilution point 5 of 10 from starting concentration 100 nM
  NORMALISED (growth inhibition, LDH absorbance): 90.4301
CR-WT parasites; [7]
  NORMALISED (growth inhibition, LDH absorbance): 75.1747
  inhibition at up to 0.1 µM: 80.3%
CR-WT parasites; 2.5 mM GlcN, dilution point 7 of 10 from starting concentration 100 nM
  NORMALISED (growth inhibition, LDH absorbance): 66.8125 and 50.5511
CR-WT parasites; 2.5 mM GlcN, dilution point 8 of 10 from starting concentration 100 nM
  NORMALISED (growth inhibition, LDH absorbance): 47.5123 and 39.2070
CR-WT parasites; 2.5 mM GlcN, dilution point 9 of 10 from starting concentration 100 nM
  NORMALISED (growth inhibition, LDH absorbance): 32.6882 and 33.0782
CR-WT parasites; 2.5 mM GlcN, dilution point 10 of 10 from starting concentration 100 nM
  NORMALISED (growth inhibition, LDH absorbance): 35.7796 and 19.6829
CR-WT parasites; Fig 4C
  fold sensitised on PfSTART1 knock-down with GlcN: 7 fold
CR-WT parasites; 0 mM GlcN
  EC50: 1.08 nM
CR-WT parasites; 0.25 mM GlcN
  EC50: 0.727 nM
CR-WT parasites; 2.5 mM GlcN
  EC50: 0.154 nM
[1]; 1 µM, 48 h treatment of mature gametocytes
  inhibition of female gamete formation: no inhibition
[1]; mean of 4 plates
  Dual Gamete Formation Assay: Female at 1 µM, Mean: -2.932
P. berghei
  effect on P. berghei parasitemia: does not reduce P. berghei parasitemia
